Assay [1] relates to Sweetpotato Whitefly-Crawler (Bemisia Tabaci). Kind of assay: Insecticidal test for sweetpotato whitefly-crawler in foliar spray assay (col. BEMITA). In kind it is in vivo. The conditions noted are these: Bemisia tabaci, Abbott's correction formula, read-out: BEMITA 200 ppm (Corrected % Control, rating). A digest of the protocol: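 Percent control, Abbott-corrected against diluent-sprayed plants, from microscope counts of live nymphs 8-9 days after treatment. Test solution at 200 ppm in 0.025% aqueous Tween 20 applied to both leaf sides of egg-infested cotton after a 5-6 day hatch period (82° F, 50% RH).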

For assay [2], the system named is Green Peach Aphid (Myzus Persicae). Kind of assay: Insecticidal test for green peach aphid in foliar spray assay (col. MYZUPE). Format: in vivo. To be noted: Myzus persicae, 72 h, Abbott's correction formula, read-out: MYZUPE 200 ppm (Corrected % Control, rating). A digest of the protocol:
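Corrected % control derives from microscope counts of live aphids per plant, treated against diluent-only checks, 3 days after foliar spraying at ~25 °C and 40% RH. Test solution was 200 ppm in 0.025% aqueous Tween 20, applied to both leaf sides of infested cabbage seedlings, four pots each.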

Structures are written as SMILES.

With `CC/N=C(\SCC)N(C)c1sc(-c2cccnc2)nc1C` [Compound 471, 2,3-diethyl-1-methyl-1-(4-methyl-2-pyridin-3-yl-thiazol-5-yl)-isothiourea], the pest or weed control at 200 ppm in assay [1] was below 80%; in assay [2] it was 80 to 100%.

In the case of `CCCCS/C(=N\CC)N(C)c1sc(-c2cccnc2)nc1C` [Compound 472], the figures for the pest or weed control at 200 ppm in assay [1] and in assay [2] were below 80% and 80 to 100%, respectively.

On to `CCN(C(=O)CC(C)SC)c1sc(-c2cccnc2)nc1Br` (centres unmarked) [Compound 480], for which the pest or weed control at 200 ppm in assay [1] and in assay [2] was 80 to 100% in each case.

As to `CCCC(C)OC(=O)N(C)c1sc(-c2cccnc2)nc1C` (centres unmarked) [Compound 482], the pest or weed control at 200 ppm in assay [1] and in assay [2] was 80 to 100% in each case.

As for `CCCCOC(=O)N(C)c1sc(-c2cccnc2)nc1C` [Compound 483], the pest or weed control at 200 ppm in assay [1] was 80 to 100%; in assay [2], below 80%.

With `COCC(C)OC(=O)N(C)c1sc(-c2cccnc2)nc1C` (centres unmarked) [Compound 484], the pest or weed control at 200 ppm is 80 to 100% in assay [1] and below 80% in assay [2].

Regarding `COCCOC(=O)N(C)c1sc(-c2cccnc2)nc1C` [Compound 485], the pest or weed control at 200 ppm in assay [1] and in assay [2] was 80 to 100% throughout.

On to `Cc1nc(-c2cccnc2)sc1N(C)C(=O)OCC(F)(F)F` [Compound 486], for which the pest or weed control at 200 ppm in assay [1] is below 80%; in assay [2], 80 to 100%.

As for `CSC(C)(C)CC(=O)N(C)c1sc(-c2cccnc2)nc1Cl` [Compound 489], the pest or weed control at 200 ppm in assay [1] and in assay [2] was 80 to 100% throughout.

On to `CCN(C(=O)CC(C)(C)SC)c1sc(-c2cccnc2)nc1Cl` [Compound 490], for which the pest or weed control at 200 ppm in assay [1] was below 80%; in assay [2], 80 to 100%.

As to `Cc1nc(-c2cccnc2)sc1N(C)C(=O)OC(C)(C)C(F)(F)F` [Compound 492], the pest or weed control at 200 ppm in assay [1] was 80 to 100%; in assay [2], below 80%.

In the case of `Cc1nc(-c2cccnc2)sc1N(C)C(=O)OC1(C)CCCCC1` [Compound 493], the pest or weed control at 200 ppm in assay [1] and in assay [2] was 80 to 100% in each case.

Regarding `CCN(C(=O)C(CSC)C(=O)CCSC)c1sc(-c2cccnc2)nc1Cl` (centres unmarked) [Compound 496], the pest or weed control at 200 ppm in assay [1] is below 80%; in assay [2] it was 80 to 100%.

Regarding `CSCCC(=O)N(C)c1sc(-c2cccnc2)nc1Br` [Compound 498], the pest or weed control at 200 ppm in assay [1] and in assay [2] was 80 to 100% in each case.

Consider `CSC(C)CC(=O)N(C)c1sc(-c2cccnc2)nc1Br` (centres unmarked) [Compound 499], for which the pest or weed control at 200 ppm is below 80% in assay [1] and 80 to 100% in assay [2].

Take `CSCCC(=O)N(C)c1sc(-c2cncc(Cl)c2)nc1Cl` [Compound 500]: the pest or weed control at 200 ppm in assay [1] and in assay [2] was 80 to 100% each time.

Consider `CN(C(=O)CC[S+](C)[O-])c1sc(-c2cncc(Cl)c2)nc1Cl` (centres unmarked) [Compound 501], for which the pest or weed control at 200 ppm in assay [1] and in assay [2] was 80 to 100% throughout.

On to `CC(CC(=O)N(C)c1sc(-c2cccnc2)nc1Br)[S+](C)[O-]` (centres unmarked) [Compound 504], for which the pest or weed control at 200 ppm in assay [1] and in assay [2] was 80 to 100% each time.

Regarding `CSCC(C)C(=O)N(C)c1sc(-c2cccnc2)nc1Br` (centres unmarked) [Compound 505], the pest or weed control at 200 ppm in assay [1] and in assay [2] was 80 to 100% in each case.

Take `CN(C(=O)CC[S+](C)[O-])c1sc(-c2cccnc2)nc1Br` (centres unmarked) [Compound 506]: the pest or weed control at 200 ppm in assay [1] is below 80%; in assay [2] it was 80 to 100%.

For the molecule `CN(C(=O)CCS(C)(=O)=O)c1sc(-c2cccnc2)nc1Br` [Compound 507], the pest or weed control at 200 ppm in assay [1] and in assay [2] was 80 to 100% in each case.

As for `CSCCC(=O)N(C)c1sc(-c2cncc(C#N)c2)nc1Cl` [Compound 508], the pest or weed control at 200 ppm was 80 to 100% in assay [1] and below 80% in assay [2].

With `CSCCC(=O)N(C)c1sc(-c2cncnc2)nc1Cl` [Compound 509], the pest or weed control at 200 ppm in assay [1] and in assay [2] was 80 to 100% each time.

On to `CSCCNC(=S)N(C)c1sc(-c2cncc(F)c2)nc1Cl` [Compound 511], for which the pest or weed control at 200 ppm in assay [1] is below 80%; in assay [2], 80 to 100%.

Turning to `CN(C(=S)NCCSc1ccc(Cl)cc1)c1sc(-c2cccnc2)nc1Cl` [Compound 512], the pest or weed control at 200 ppm in assay [1] was 80 to 100%; in assay [2], below 80%.

Consider `COc1cncc(-c2nc(Cl)c(N(C)C(=O)CCSC)s2)c1` [Compound 513], for which the pest or weed control at 200 ppm in assay [1] and in assay [2] was below 80% in each case.

For `COc1cncc(-c2nc(Cl)c(N(C)C(=O)CC[S+](C)[O-])s2)c1` (centres unmarked) [Compound 514], the pest or weed control at 200 ppm in assay [1] and in assay [2] was below 80% each time.

For the molecule `CSC(C)C(C)C(=O)N(C)c1sc(-c2cccnc2)nc1Cl` (centres unmarked) [Compound 516], the pest or weed control at 200 ppm in assay [1] was below 80%; in assay [2] it was 80 to 100%.

As to `CN(C(=O)C1CCSC1)c1sc(-c2cccnc2)nc1Cl` (centres unmarked) [Compound 517], the pest or weed control at 200 ppm in assay [1] is below 80%; in assay [2], 80 to 100%.

Regarding `CCOC1(N(C(=O)OC(C)(C)C)c2sc(-c3cccnc3)nc2C)CC1` [Compound 518], the pest or weed control at 200 ppm is below 80% in assay [1] and 80 to 100% in assay [2].

As for `CC(CC(=O)N(C)c1sc(-c2cccnc2)nc1Cl)[S+](C)[O-]` (centres unmarked) [Compound 520], the pest or weed control at 200 ppm in assay [1] was below 80%; in assay [2], 80 to 100%.

For `CN(C(=O)CC(C)(C)[S+](C)[O-])c1sc(-c2cccnc2)nc1Cl` (centres unmarked) [Compound 521], the pest or weed control at 200 ppm in assay [1] was below 80%; in assay [2], 80 to 100%.

For `CC(C(=O)N(C)c1sc(-c2cccnc2)nc1Cl)C(C)[S+](C)[O-]` (centres unmarked) [Compound 522], the values for the pest or weed control at 200 ppm in assay [1] and in assay [2] were below 80% and 80 to 100%, respectively.

As for `CN(C(=O)C1CC[S+]([O-])C1)c1sc(-c2cccnc2)nc1Cl` (centres unmarked) [Compound 523], the pest or weed control at 200 ppm in assay [1] is below 80%; in assay [2], 80 to 100%.

Turning to `CCN(C(=O)CC(C)[S+](C)[O-])c1sc(-c2cccnc2)nc1Cl` (centres unmarked) [Compound 524], the pest or weed control at 200 ppm in assay [1] and in assay [2] was 80 to 100% each time.

As to `CCN(C(=O)c1ccsc1)c1sc(-c2cccnc2)nc1Cl` [Compound 527], the values for the pest or weed control at 200 ppm in assay [1] and in assay [2] were 80 to 100% and below 80%, respectively.

With `CCN(C(=O)Cc1ccsc1)c1sc(-c2cccnc2)nc1Cl` [Compound 528], the pest or weed control at 200 ppm in assay [1] is 80 to 100%; in assay [2], below 80%.

`CCCCC(=O)N(CC)c1sc(-c2cccnc2)nc1Cl` [Compound 530]: the pest or weed control at 200 ppm in assay [1] and in assay [2] was 80 to 100% each time.

With `CCC(C)C(=O)N(CC)c1sc(-c2cccnc2)nc1Cl` (centres unmarked) [Compound 531], the pest or weed control at 200 ppm in assay [1] and in assay [2] was 80 to 100% in each case.

As for `CCN(C(C)=O)c1sc(-c2cccnc2)nc1Cl` [Compound 533], the pest or weed control at 200 ppm in assay [1] and in assay [2] was 80 to 100% in each case.

`C=C(CC)C(=O)N(CC)c1sc(-c2cccnc2)nc1Cl` [Compound 534]: the pest or weed control at 200 ppm in assay [1] is 80 to 100%; in assay [2], below 80%.

As to `C=CC(=O)N(CC)c1sc(-c2cccnc2)nc1Cl` [Compound 535], the pest or weed control at 200 ppm was 80 to 100% in assay [1] and below 80% in assay [2].

With `CCN(C(=O)CC(C)(C)[S+](C)[O-])c1sc(-c2cccnc2)nc1Cl` (centres unmarked) [Compound 537], the pest or weed control at 200 ppm in assay [1] was below 80%; in assay [2], 80 to 100%.

For `CCN(C(=O)C(C)C(C)SC)c1sc(-c2cccnc2)nc1Cl` (centres unmarked) [Compound 538], the pest or weed control at 200 ppm in assay [1] and in assay [2] was 80 to 100% throughout.

Turning to `CCN(C(=O)C(C)c1ccc(Cl)cc1)c1sc(-c2cccnc2)nc1Cl` (centres unmarked) [Compound 540], the pest or weed control at 200 ppm in assay [1] and in assay [2] was 80 to 100% each time.

In the case of `CCN(C(=O)c1cnco1)c1sc(-c2cccnc2)nc1Cl` [Compound 542], the pest or weed control at 200 ppm in assay [1] and in assay [2] was 80 to 100% in each case.

`CCN(C(=O)c1ccc(C(C)=O)s1)c1sc(-c2cccnc2)nc1Cl` [Compound 543]: the pest or weed control at 200 ppm in assay [1] and in assay [2] was 80 to 100% in each case.

Take `CCN(C(=O)c1ccnc(C)c1)c1sc(-c2cccnc2)nc1Cl` [Compound 544]: the values for the pest or weed control at 200 ppm in assay [1] and in assay [2] were below 80% and 80 to 100%, respectively.

`CCN(C(=O)c1ccc(CSC)o1)c1sc(-c2cccnc2)nc1Cl` [Compound 545]: the pest or weed control at 200 ppm in assay [1] is below 80%; in assay [2], 80 to 100%.

`CCN(C(=O)c1ccc(C[S+](C)[O-])o1)c1sc(-c2cccnc2)nc1Cl` (centres unmarked) [Compound 549]: the pest or weed control at 200 ppm in assay [1] and in assay [2] was 80 to 100% throughout.

`CCN(C(=O)Cc1cccs1)c1sc(-c2cccnc2)nc1Cl` [Compound 550]: the pest or weed control at 200 ppm was 80 to 100% in assay [1] and below 80% in assay [2].

As for `CCN(C(=O)C1C(C=C(Cl)Cl)C1(C)C)c1sc(-c2cccnc2)nc1Cl` (centres unmarked) [Compound 552], the values for the pest or weed control at 200 ppm in assay [1] and in assay [2] were below 80% and 80 to 100%, respectively.

The record behind these values is US8853246B2 (Dow AgroSciences LLC, priority 2009, dated 2014).
